Measured values reported in ChEMBL document CHEMBL1201862, “PubChem BioAssay data set” (2004).
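Cultured in 96-well plates, cells were exposed to test compound for 48 hours across five concentrations. The concentration for 50% growth inhibition is given as GI50.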 The source made the active and inactive calls. No stated cut-off is given here; in the data, active = GI50 up to about 1.1 µM and inactive = higher.

Legend:
Assay in all cases: NCI tumour cell line growth inhibition, 48 h
[1] = system: SF-268
[2] = system: SNB-75
[3] = system: UACC-257
[4] = system: TK-10
[5] = system: NCI-H23
[6] = system: SF-295
[7] = system: IGROV-1
[8] = system: UACC-62
[9] = system: OVCAR-3
[10] = system: OVCAR-8
[11] = system: Malme-3M
[12] = system: HOP-92
[13] = system: HOP-62
[14] = system: SK-MEL-5
[15] = system: A549
[16] = system: KM12
[17] = system: OVCAR-4
[18] = system: SW-620
[19] = system: CCRF-CEM
[20] = system: HL-60

Measured: GI50

C/C(=C\c1ccccn1)c1ccccn1
inactive: [1] > 100 µM | [2] > 100 µM | [3] > 100 µM | [4] > 100 µM | [5] > 100 µM | [6] > 100 µM | [7] > 100 µM | [8] > 100 µM | [9] > 100 µM | [10] > 100 µM | [11] > 100 µM | [12] > 100 µM | [13] > 100 µM | [14] > 100 µM | [15] > 100 µM | [16] > 100 µM | [17] > 100 µM

COc1ccc(N2C(=O)CC(=O)N(C(=O)COc3ccc(OCC(=O)N4C(=O)CC(=O)N(c5ccc(OC)cc5)C4=S)cc3)C2=S)cc1
inactive: [1] 35.4 µM | [2] 54 µM | [3] 43.9 µM | [4] 44.3 µM | [5] 38.1 µM | [6] 36.8 µM | [7] 47.9 µM | [8] 29.2 µM | [18] 40.1 µM | [11] 68.2 µM | [12] 40.9 µM | [14] 36.8 µM | [15] 35.8 µM | [16] 15.6 µM | [17] 27 µM

CN1c2ccccc2S(=O)(=O)n2c(COc3ccccc3)nnc21
inactive: [1] > 100 µM | [3] > 100 µM | [4] > 100 µM | [5] > 100 µM | [6] 45.7 µM | [7] > 100 µM | [8] > 100 µM | [9] > 100 µM | [10] > 100 µM | [18] > 100 µM | [12] 56.5 µM | [13] 35.4 µM | [19] > 100 µM | [14] > 100 µM | [15] > 100 µM | [16] > 100 µM | [17] > 100 µM | [20] 62.5 µM

Cc1cccc2nc(-c3ccccc3)cc(=O)n12
inactive: [1] > 100 µM | [3] 91.8 µM | [4] 68.7 µM | [5] > 100 µM | [6] > 100 µM | [7] 49.8 µM | [8] 44.1 µM | [9] > 100 µM | [10] 88.3 µM | [18] > 100 µM | [11] > 100 µM | [12] 61.7 µM | [13] > 100 µM | [19] > 100 µM | [14] 38.2 µM | [15] > 100 µM | [16] > 100 µM | [17] > 100 µM | [20] > 100 µM

COC(=O)/C(=C(\C)NC(C)=O)c1c(C(=O)OC)[nH]c2ccccc12
inactive: [1] > 100 µM | [3] > 100 µM | [4] > 100 µM | [5] > 100 µM | [6] > 100 µM | [7] > 100 µM | [8] > 100 µM | [9] > 100 µM | [10] > 100 µM | [18] > 100 µM | [11] > 100 µM | [12] > 100 µM | [13] > 100 µM | [19] > 100 µM | [14] > 100 µM | [15] > 100 µM | [16] > 100 µM | [17] > 100 µM | [20] > 100 µM

CCOP(C)(=O)C(Nc1ccc(F)cc1)c1ccc(F)cc1 (stereo unspecified)
inactive: [1] > 100 µM | [3] > 100 µM | [4] > 100 µM | [5] > 100 µM | [6] > 100 µM | [7] > 100 µM | [8] > 100 µM | [9] > 100 µM | [10] > 100 µM | [18] > 100 µM | [11] > 100 µM | [12] > 100 µM | [13] > 100 µM | [19] > 100 µM | [14] > 100 µM | [15] > 100 µM | [16] > 100 µM | [17] > 100 µM | [20] > 100 µM

CC(=O)O[C@H]1C=CC23OC(=O)[C@]1(C)[C@H]2[C@H](C(=O)O)C12CC(=O)[C@@](CO)(CC[C@H]13)C2
inactive: [1] > 100 µM | [3] > 100 µM | [4] > 100 µM | [5] > 100 µM | [6] > 100 µM | [7] > 100 µM | [8] 75.7 µM | [9] > 100 µM | [10] > 100 µM | [18] > 100 µM | [12] > 100 µM | [13] > 100 µM | [19] > 100 µM | [14] > 100 µM | [15] > 100 µM | [16] > 100 µM | [17] > 100 µM | [20] > 100 µM

COC(=O)/C=C(C)/C=C/c1c(C)c(C(C)=O)c(C)n1C
inactive: [1] > 100 µM | [3] > 100 µM | [4] > 100 µM | [5] > 100 µM | [6] > 100 µM | [7] > 100 µM | [8] 96.2 µM | [9] > 100 µM | [10] > 100 µM | [18] > 100 µM | [11] > 100 µM | [12] 18.3 µM | [13] > 100 µM | [19] > 100 µM | [15] > 100 µM | [16] > 100 µM | [17] 80.9 µM | [20] 49.9 µM

O=c1oc2cc(O)ccc2cc1-c1nc2ccccc2s1
inactive: [3] 22.6 µM | [4] 30.1 µM | [5] 21.1 µM | [6] 54.1 µM | [7] 35.4 µM | [8] 7.21 µM | [9] 16.3 µM | [10] 34.7 µM | [18] 12.2 µM | [12] 27.7 µM | [13] 20.9 µM | [19] 10.4 µM | [14] 11.1 µM | [15] 19.1 µM | [16] 42.3 µM | [17] 28.2 µM | [20] 16.1 µM

COc1ccc(/C=C2\Sc3nnc(C)n3N=C2c2cc(F)c(Cl)cc2Cl)cc1OC
inactive: [1] 22.4 µM | [3] 17 µM | [4] 17.9 µM | [5] 12.4 µM | [6] 22.1 µM | [7] 16 µM | [8] 16.7 µM | [9] 4.52 µM | [10] 15.5 µM | [18] 5.33 µM | [11] 18.3 µM | [12] 13.8 µM | [13] 17 µM | [19] 4.18 µM | [14] 18.8 µM | [15] 21.2 µM | [16] 15.2 µM | [17] 13.2 µM | [20] 8.95 µM

CCc1nnc(CC)n1N1C(=O)CCC1=O
inactive: [1] > 100 µM | [2] > 100 µM | [3] > 100 µM | [4] > 100 µM | [5] > 100 µM | [6] > 100 µM | [7] > 100 µM | [8] > 100 µM | [9] > 100 µM | [10] > 100 µM | [18] > 100 µM | [12] > 100 µM | [13] > 100 µM | [19] > 100 µM | [14] > 100 µM | [15] > 100 µM | [16] > 100 µM | [17] > 100 µM

CC1=CC(C)(C)NN1C1=NS(=O)(=O)c2ccccc2N1C
inactive: [1] > 100 µM | [3] > 100 µM | [4] > 100 µM | [5] > 100 µM | [6] > 100 µM | [7] > 100 µM | [8] > 100 µM | [9] > 100 µM | [10] > 100 µM | [18] > 100 µM | [12] > 100 µM | [13] > 100 µM | [19] 98.9 µM | [14] > 100 µM | [15] > 100 µM | [16] > 100 µM | [17] 44.3 µM | [20] > 100 µM

CN(C)c1nc(NN)c2c(-c3ccccc3)c(-c3ccccc3)oc2n1
inactive: [1] 89.1 µM | [2] 96.8 µM | [3] > 100 µM | [4] > 100 µM | [5] > 100 µM | [6] > 100 µM | [7] > 100 µM | [8] 44.8 µM | [10] > 100 µM | [18] > 100 µM | [12] > 100 µM | [19] 52.5 µM | [15] > 100 µM | [16] > 100 µM | [17] 35.1 µM

O=C1NC(Cc2c[nH]c3ccccc23)C(=O)N2C(c3ccccc3)c3[nH]c4ccccc4c3C[C@@H]12 (stereo partly specified)
inactive: [1] 26.1 µM | [3] 25.4 µM | [4] 26.9 µM | [5] 27.7 µM | [6] 15.3 µM | [7] 22.2 µM | [8] 17.2 µM | [9] 15.5 µM | [10] 31.3 µM | [18] 31.9 µM | [11] 15 µM | [12] 25.1 µM | [13] 17.2 µM | [14] 17.5 µM | [15] 25.8 µM | [16] 19.3 µM | [17] 26.9 µM | [20] 20.5 µM

COC(=O)c1ccc(NCC2=CC(=O)C=CC2=O)cc1O
inactive: [1] 28.9 µM | [2] 19 µM | [3] 16.2 µM | [4] 14.4 µM | [5] 17.9 µM | [6] 17.7 µM | [7] 17.3 µM | [8] 15.7 µM | [9] 11.5 µM | [10] 15.5 µM | [18] 24.3 µM | [11] 10.6 µM | [12] 2.92 µM | [13] 18.1 µM | [19] 5.32 µM | [14] 24.4 µM | [15] 32.6 µM | [17] 16.6 µM
